Drawing on PubChem BioAssay AID488890 (Southern Research Specialized Biocontainment Screening …, 2010), this text covers IC50 for 72 molecules.

What is called IC50 is the concentration needed to halve the response being measured.

Structures are written as SMILES. Inconclusive results are not listed. Activity calls are given as the source filed them. The rule behind the calls is not given here. Some results are limits rather than exact numbers.

This assay has as its system Mycobacterium tuberculosis non-replicating, growth inhibition. The experiment in a line: growth inhibition of non-replicating M. tuberculosis (AID 488890).
In the case of `O=C1Nc2ccc(Br)cc2/C1=C/C(=O)c1ccc2c(c1)OCO2`, the IC50 is 10.6 µM (inactive).
Next, `CC1=NN(C(=O)c2ccccc2F)C(O)(c2ccc(Cl)cc2)C1` (configuration not stated): 0.5 µM; `CC(=O)n1cc(/C=C2/N=C(c3ccccc3)OC2=O)c2ccccc21`: 2.59 µM; `N=C1S/C(=C\c2ccco2)C(=O)N1c1nccs1`: 3.04 µM.
The value for `COc1ccc(CNC(=O)c2cc3cccc(O)c3oc2=N)cc1` was 14.3 µM (inactive).
Consider `O=C(CCN1CCC(c2ccccc2)C1)c1ccccc1` (configuration not stated), for which the IC50 is 33.1 µM (inactive).
Next, `CCOc1c(OC(C)=O)ccc(/C=C2\N=C(SCC)SC2=O)c1[N+](=O)[O-]`: 10.2 µM (inactive).
Next, `CC(C)(C)c1ccc(C(=O)Nc2nnc(C3=COCCO3)o2)cc1`: 3.07 µM.
Next, `c1ccc(C2=Nc3ccccc3OC2)cc1`: 4.54 µM; `O=Cc1coc2ccc3ccccc3c2c1=O`: 16.3 µM (inactive); `Cc1ccc(C(=O)CCC2CCCC2=O)cc1` (configuration not stated): 14.4 µM (inactive).
With `CCCCCn1nnc2c(=O)oc3ccccc3c21`, the half-inhibitory concentration (IC50) is 1.2 µM.
Consider `O=C(c1ccc(-c2ccc([N+](=O)[O-])cc2)o1)N1CCCCCCC1`, for which the IC50 is 11.6 µM (inactive).
Next, `Cc1cccc(NC(=O)c2ccc(OC3CSC3)cc2)c1`: 28.7 µM (inactive).
The value for `Cc1cc(NC(=O)C2CCCCC2)n(-c2nc3ccccc3[nH]2)n1` was 6.84 µM; that for `CCc1cc(C=NC2CCCCC2)c(O)s1` was 1.78 µM.
Next, `COc1cccc2cc(C(=O)c3ccc([N+](=O)[O-])cc3)oc12`: 6.05 µM; `O=C1c2cccc3c([N+](=O)[O-])ccc(c23)C(=O)N1c1ccc(Cl)cn1`: 0.69 µM.
In the case of `CCOc1ccc(C(=O)Nc2nc3ccccc3[nH]2)cc1OCC`, the half-maximal inhibitory concentration (IC50) is 9.11 µM.
The value for `CC(C)(C)c1cc(CN2CCN(CCO)CC2)cc(C(C)(C)C)c1O` was 3.78 µM; that for `O=C(NC1CCCC1)c1nc2c(nnn2Cc2cccc(Cl)c2)c(=O)[nH]1` was 19.8 µM (inactive).
In the case of `C=CCN1C(=O)C2(NNc3ccccc3O2)c2ccccc21` (configuration not stated), the IC50 is 2.25 µM.
Next, `Cc1ccccc1NC(=O)c1nc[nH]c1C(=O)NCc1ccccc1`: 23.7 µM (inactive); `O=C(C/C=N\OCc1ccc([N+](=O)[O-])cc1)Nc1ccc(Br)cc1`: 10.9 µM (inactive); `O=C(Nc1nnc(-c2ccc(F)cc2)o1)c1cc(Cl)sc1Cl`: 7.95 µM.
The value for `CC(=O)c1ccc(C(=O)Nc2nnc(-c3ccc(Cl)cc3)o2)cc1` was 4.03 µM; that for `CCn1nnc(NC(=O)c2sc3ccccc3c2Cl)n1` was 28.5 µM (inactive); that for `O=C(Nc1cccc(Cl)c1N1CCCC1)c1ccc([N+](=O)[O-])o1` was 12 µM (inactive).
The value for `CC(C)OC(=O)COc1ccc(-c2ccccc2)cc1` was 3.25 µM; that for `C#CCOc1coc(COC(=O)c2ccccc2)cc1=O` was 48.5 µM (inactive).
With `O=C(OCn1nnc2ccccc2c1=O)c1ccc(Br)o1`, the IC50 was 11.6 µM (inactive).
Next, `CCc1ccc(C(C)NC(=O)C2CCCO2)cc1` (configuration not stated): 8.61 µM.
Next, `CC(C)(C)NC(=O)C(=O)NNC(=O)c1ccc(C(C)(C)C)cc1`: 5.82 µM; `Cc1ccc(-c2nc3ccccn3c2Nc2ccccc2)o1`: 8.4 µM.
The value for `O=C(NN=C1C2CC3CC1CC(Cl)(C3)C2)c1cccs1` was 23.7 µM (inactive); that for `O=C1/C(=C/c2ccccn2)COc2ccccc21` was 15.8 µM (inactive).
For the molecule `O=C(N/N=C(\c1ccccc1)c1ccccn1)c1cccc([N+](=O)[O-])c1`, the IC50 is 1.93 µM.
On to `Cc1cccc(NC(=O)c2cc3ccccc3o2)c1`, for which the concentration for half-maximal inhibition (IC50) was 3.23 µM.
Regarding `CCc1ccc2c(c1)Sc1ccccc1CC2N1CCN(C)CC1` (configuration not stated), the IC50 was 13.6 µM (inactive).
The value for `COC(=O)COc1cccc(NC(=O)COc2ccccc2)c1` was 7.75 µM; that for `O=C(Nc1cc(C(F)(F)F)ccc1-n1cncn1)c1ccc([N+](=O)[O-])o1` was 17.9 µM (inactive); that for `CCOCCOC(=O)c1ccc(NC(=O)C2COc3ccccc3O2)cc1` (configuration not stated) was 4.16 µM.
The value for `c1ccc(C[C@H]2CNCCN2CCCCC2CCCCC2)cc1` was 17.7 µM (inactive); that for `O=C(COC(=O)c1ccc(Cl)s1)c1ccc[nH]1` was 6.38 µM.
As to `COc1ccc(C(=O)Nc2nnc(C3=COCCO3)o2)cc1`, the IC50 is 7.69 µM.
Next, `O=C(N[C@@H]1C[C@H]2CC[C@@H]1C2)c1ccco1`: 15.1 µM (inactive); `OC(CNCCc1ccc(C(F)(F)F)cc1)COc1cccc2ccccc12` (configuration not stated): 9.03 µM.
Next, `COc1ccc(C(=O)Oc2cccc3cccnc23)cc1S(=O)(=O)N1CCOCC1`: 1.19 µM.
Next, `CCCOC(=O)c1ccc(NC(=O)c2ccccc2OC)cc1`: 18.1 µM (inactive).
As to `Cc1onc(-c2ccccc2)c1C(=O)O/N=C(\N)c1ccc([N+](=O)[O-])o1`, the IC50 is 25.8 µM (inactive).
The value for `COc1cccc(CNCCc2c[nH]c3ccccc23)c1OCc1ccc(F)cc1` was 16.9 µM (inactive); that for `COc1cccc(C(=O)Nc2nnc(-c3ccc(F)cc3)o2)c1` was 8.17 µM.
The value for `O=C(Nc1ccc(-c2nc3ccccc3c(=O)o2)cc1)c1ccco1` was 0.35 µM; that for `O=C(NCCc1c[nH]c2ccccc12)c1cc2ccccc2oc1=O` was 4.78 µM; that for `CCCCCCCC(=O)N/N=C/c1ccc([N+](=O)[O-])o1` was 2.63 µM.
The value for `Cc1cc(/C=N\NC(=O)c2cccs2)c(C)n1-c1ccc2ncccc2c1` was > 25 µM (inactive); that for `c1ccc2sc(SCc3ccc(-c4nnco4)cc3)nc2c1` was 13.2 µM (inactive); that for `CCc1ccc(NC(=O)C(=O)NNC(=O)COc2cccc(OC)c2)cc1` was 2.49 µM.
Consider `CN1CCc2c(sc(NC(=O)c3ccc([N+](=O)[O-])o3)c2C(N)=O)C1`, for which the 50% inhibitory concentration (IC50) was 8.37 µM.
On to `Cc1cccc(C)c1NC(=O)COC(=O)CCc1c[nH]c2ccccc12`, for which the IC50 is 19.3 µM (inactive).
Turning to `COC(=O)c1ccc(C(=O)NC2CCCc3c2cnn3-c2cc(F)cc(F)c2)nc1` (configuration not stated), the IC50 was 9.55 µM.
Next, `O=C(c1cc(F)ccc1F)C1CCCN(Cc2ccc3nonc3c2)C1` (configuration not stated): 12.7 µM (inactive).
Next, `CC1CCN(C(=O)C2COc3ccccc3O2)CC1` (configuration not stated): 0.23 µM; `CCC(C)c1ccc(O)c(/C=N/O)c1` (configuration not stated): 2.43 µM.
The value for `COC(=O)c1cccc(NC(=O)COc2cccc([N+](=O)[O-])c2)c1` was 7.11 µM.
Consider `CCCNC(=O)NC(=O)COc1ccc2oc3ccccc3c2c1`, for which the concentration for half-maximal inhibition (IC50) was 5.09 µM.
On to `CC(=O)N1CCC(=NNC(=O)c2cccs2)CC1`, for which the IC50 was 20.7 µM (inactive).
Next, `CCCNC(=O)N1CCC(c2ccc3c(c2)OCO3)CC1`: 4.71 µM; `O=C(OCc1ccc(Cl)c(Cl)c1)c1ccccn1`: 2.27 µM.
Next, `O=C(OCC(=O)N1CCN(c2ccccc2)CC1)c1cnc(Cl)c(Cl)c1`: 4.72 µM.
Next, `O=C1Nc2ccccc2/C1=C/C(=O)c1cccs1`: 13.4 µM (inactive); `CCOC(=O)C1CCN(CCCSc2ccc(Cl)cc2)CC1`: 46.4 µM (inactive).
